Assay results: patent US20100119589A1, “LIPOSOMAL COMPOSITION OF ANTIOXIDANTS FOR INHALATIONS CARRIED OUT DURING LUNG AND UPPER RESPIRATORY TRACT DISEASES” (OTKRYTOE AKTSIONERNOE OBSCHESTVO ZAVOD EKOLOGICHES, priority 2006, published 2010)

How the values were obtained:
[1] = tested on: multi lamellar vesicles of soybean phosphatidylcholine (PCh); assay: Inhibition of peroxidic oxidation of lipids (POL): TBA-sensitive products in soybean phosphatidylcholine liposomes; assay type: biochemical
Method: The antioxidative activity of preparations with varying combinations of the ingredients was evaluated on the basis of their effect on the increase of concentration of POL products (malondialdehyde or products that are sentitive to thiobarbituric acid (TBA)) in an aqueous dispersion of soybean phospholipids. For this evaluation the concentration in the soybean phospatidylcholine liposomes was measured at an initial moment and after incubation at 37° C. for 60 min. in the absence and presence of POL starters, namely, Fe^3+ ions and ascorbate.
Originally a 2.0 percent aqueous dispersion of phospholipides with antioxidants, where wheat germ oil is also present, contains an insignificant amount of products sensitive to TBA (0.8 nmol/ml). This amount rises to 2-2.5 times as much as a result of heating for 60 min. When starters are added to the original system the concentration of POL products rises to 40 nmol/ml during incubation at 37° C. for 60 min., i.e., will be […] as high.
Increase of the amount of products sensitive to TBA [nmol/ml] in multi lamellar vesicles of soybean phosphatidylcholine (PCh) containing N-acetyl-L-cysteine as a result of oxidation, the latter caused by introduction of an oxidation starter Pe3+/ascorbat (60 min, 37° C.) into the system, in the absence and presence of various antioxidants (AO).

[2] = in tablets; cited from earlier work

In the case of `O=C1O[C@H]([C@@H](O)CO)C(O)=C1O` [ascorbic acid], the minimum inhibiting concentration ([1]; POL inhibition, ascorbic acid alone) is reported as 2500 µg/mL and the “decrease of the concentration of the acid when wheat germ oil is simultaneously present” value ([1]; wheat germ oil and ascorbic acid simultaneously present) is reported as 5 times.

With `O=C1c2c(O)cc(O)cc2O[C@H](c2ccc(O)c(O)c2)[C@H]1O` [dihydroquercetin] the minimum effective concentration ([1]; POL inhibition) was 0.03 mg/mL and the “antioxidant activity when wheat germ oil was added” value ([1]; wheat germ oil added to dihydroquercetin) was “decreased”.

In the case of vitamin E, the bioavailability [2] is given as 3%.
